The values below come from patent EP4471028A1, “HYDRAZINO GROUP-CONTAINING COMPOUND” (priority 2022, dated 2023).

Series [1] in a line: In vitro liver microsomal metabolic stability. The series is classed as in vitro ADME. Conditions: human, liver microsomes, pH 7.4; 0.5 mg/mL microsomes, NADPH, 37 °C, 60 min; read-out: Human liver microsome Residual rate at 60 min%. The method, then:
Liver microsome incubation samples were prepared by mixing a PBS buffer (pH 7.4), a liver microsome solution (0.5 mg/mL; species: human, monkey, dog, rat, and mouse), a test compound, and an NADPH + MgCl2 solution and incubated at 37 °C and 300 rpm for 1 h. Zero-hour samples were prepared by mixing a PBS buffer (pH 7.4), a liver microsome solution (0.5 mg/mL), and a test compound. An acetonitrile solution containing an internal standard was added to the samples, and supernatants were prepared by protein precipitation, diluted, and then assayed by LC/MS/MS.
Background: Liver microsomes are a subcellular fraction often used to study metabolism.

Series [2] is described as follows: In vivo pharmacokinetics (Table 4). Conditions: plasma; for bioavailability: po, IG 10mg/kg versus IV 1mg/kg, read-out: Absolute F; for clearance: IV, 1mg/kg, read-out: CLz (converted).

For `COC1CCC(n2c(=O)n(N)c3cnc4cc(F)c(-c5ccc(OCCCN(C)C)nc5)cc4c32)C1` (centres unmarked) [Example 14], the remaining at 1 h in series [1] was found to be 66.2%.
On the same count and under the same terms, then `CC(C)n1c(=O)n(N)c2nnc3cc(F)c(-c4ccc(OCCCN5CCCCC5)nc4)cc3c21` [Example 32], with 95.8%; and `COC1CC(n2c(=O)n(N)c3cnc4cc(F)c(-c5ccc(OCCCN(C)C)nc5)cc4c32)C1` (centres unmarked) [Example 21], with 79.6%; and `COC1CCC(n2c(=O)n(N)c3cnc4cc(F)c(-c5ccc(OCCCN6CCCC6)nc5)cc4c32)C1` (centres unmarked) [Example 13], with 56%.
On to `CC(C)n1c(=O)n(N)c2cnc3cc(F)c(-c4ccc(OCCCN5CC(CF)C5)nc4)cc3c21` [Example 28], for which the remaining at 1 h in series [1] came out at 65.6%. In addition, in series [2], the bioavailability turned out to be 77.4% and the clearance is 7.45 mL/min/kg.
For `COc1cc2ncc3c(c2cc1-c1ccc(OCCCN2CCCCC2)nc1)n(C(C)C)c(=O)n3N` [Example 16], the remaining at 1 h in series [1] is 72.4%.
Still for that read-out and setting: then `CC(C)n1c(=O)n(N)c2cnc3cc(F)c(-c4ccc(OCC5CC(N6CCCC6)C5)nc4)cc3c21` (centres unmarked) [Example 22], with 73.3%.
Take `Nn1c(=O)n(C2CC2)c2c3cc(-c4ccc(OCCCN5CCCC5)nc4)c(F)cc3ncc21` [Example 19]: in series [1], the remaining at 1 h is 77%. Also, in series [2], the bioavailability stood at 88.3% and the clearance is 35.2 mL/min/kg.
With `COc1cc2ncc3c(c2cc1-c1ccc(OCCCN2CCCC2)nc1)n(C1CC1)c(=O)n3N` [Example 11], the remaining at 1 h in series [1] is 58.6%.
Consider `CC(C)n1c(=O)n(N)c2cnc3cc(F)c(-c4ccc(OCCCN5C6CCC5CC6)nc4)cc3c21` [Example 27], for which, in series [2], the bioavailability turned out to be 115% and the clearance was 59.7 mL/min/kg.
As to `Nn1c(=O)n(C2CC2)c2c3cc(-c4ccc(OCCCN5CCCCC5)nc4)c(F)cc3ncc21` [Example 18], in series [2], the bioavailability amounted to 75.9% and the clearance is 26.7 mL/min/kg.
For `CC(C)n1c(=O)n(N)c2cnc3cc(F)c(-c4ccc(OCCCN5CCCCC5)nc4)cc3c21` [Example 2], the remaining at 1 h in series [1] is 64.4%. In series [2], the bioavailability was found to be 79.7% and the clearance was 31 mL/min/kg.
For `CC(C)n1c(=O)n(N)c2cnc3cc(F)c(-c4ccc(OCCCN5CC6(CCC6)C5)nc4)cc3c21` [Example 29], in that order: 64.9%, 85.9% and 5.27 mL/min/kg.
For `CC(C)n1c(=O)n(N)c2cnc3cc(F)c(-c4ccc(OCCCN5CCCC5)nc4)cc3c21` [Example 3], in that order: 86.3%, 95.5% and 36.3 mL/min/kg.
Consider `Nn1c(=O)n(C2CCOCC2)c2c3cc(-c4ccc(OCCCN5CCCC5)nc4)c(F)cc3ncc21` [Example 5], for which the remaining at 1 h in series [1] amounted to 90.6%.
As to `COc1cc2ncc3c(c2cc1-c1ccc(OCCCN2CCCC2)nc1)n(C(C)C)c(=O)n3N` [Example 17], in series [1], the remaining at 1 h came out at 85.2%.
In the case of `Nn1c(=O)n(C2CCOCC2)c2c3cc(-c4ccc(OCCCN5CCCCC5)nc4)c(F)cc3ncc21` [Example 15], the remaining at 1 h in series [1] was found to be 58.4%.
